{
  "source": "patent US20170348252A1",
  "about": "“Preparation and Use of Ketamine Derivatives and Ketamine Modifiers in the Treatment of Pain” (priority 2016, published 2017)",
  "origin": "cited, not measured here",
  "conditions": "relative to thiopental; from Anirudda Pai et al. 2007",
  "data": [
    {"smiles": "CNC1(c2ccccc2Cl)CCCCC1=O", "note": "(racemic) [Ketamine, 2-(2-chlorophenyl)-2-methylamino cyclohexanone]", "values": [
      {"measurement": "lipid solubility", "result": "5-10 times that of thiopental"}
    ]}
  ]
}
